Measured values published in patent US9675595B2, “Synergistic combinations of PI3K- and MEK-inhibitors” (Novartis AG, priority 2011, dated 2017).
Read-outs that look alike come from different tables or passages of the source.

Legend:
Format in all cases: cell-based
SW948 = test: Cell viability (CellTiterGlo, 72 h), Example 1; details: Homo sapiens, duplicate data points and dose response display some scatter, single agent
Text: (§1) The colorectal cancer cell lines SW1417, COLO 205, LS411N, HT-29, RKO, OUMS-23, SW620, LoVo, SW480, SW837, COLO-678, LS123-NCI—H747, HCT-15, HCT116, DLD-1, T84, SW948, LS180, GP2d, HuTu 80, CW-2, SW48, NCI—H716, C2Bbe1, SNU—C1 and KM12 are obtained from the American Type Culture Collection (ATCC) and maintained in their respective culture medium as specified by the provider. These colorectal cancer cell lines have the following mutation status:
(§2) For assessment of combination effects, cells are seeded into 384-well plates at 500 cells/well and incubated overnight. The contents of the compound master plates are pre-diluted with 1:200 (1 μL compound solution to 200 μL cell […] culture medium containing 10% fetal clf serum) before transferring 5 μL of this pre-dilution to the cell plates containing 20 μL cell culture medium, to achieve the targeted final compound concentrations as well as a vehicle (DMSO) concentration of 0.09%.
(§3) Effects of single agents as well as their checkerboard combinations on cell viability are assessed after 72 hours of incubation at 37° C./5% CO2 by quantification of cellular ATP levels (CellTiterGlo, Promega) using 25 μL reagent/well and n=2 repliate plates per condition. The number/viability of cells at the time of compound addition was likewise assessed and used to estimate the population doubling time of the particular cell line. Single agent IC50s are calculated using standard four-parametric curve fitting (SLFit, model 205). Potential synergistic interactions between compound combinations are assessed using the Excess Inhibition 2D matrix according to the Loewe additivity model and are reported as Synergy Score. In addition, compound combinations are assessed by combination index analysis derived from isobologram graphs at 50% inhibition, and are reported as best combination index (CI), which corresponds to the lowest value on the isobologram. All synergy calculations are performed using CHALICE software (Lehár et al, Nat Biotechnol. (July 2009), 27(4): […]).

HT-29 = test: Cell viability (CellTiterGlo, 72 h), Example 1; details: Homo sapiens, HT-29, 72 h
Text: as §1, §2, §3

[1] = tested on: CRC and NSCLC cell lines that carry KRAS mutations; test: Cell proliferation assay (CellTiter-Glo, 72 hrs), dose matrix, Example 2, all six cell lines; details: in the combination dose matrix
Method: The cell lines used in this study were purchased from American Type Cell Collection, including non-small cell lung cancer cell lines NCI—H23 & NCI—H2122 (which carry both KRAS and LKB1 mutations), NCI—H358 (which carries KRAS mutation), NCI—H460 (which carries KRAS, LKB1 and PIK3CA mutations), and Colorectal Cancer cell line SW480 (which carries KRAS mutation), HCT-15 (which carries KRAS PIK3CA mutations). All the cell lines were cultured at 37° C. in a 5% CO2 incubator in RPMI 1640 (ATCC #30-2001) media complemented with 10% fetal bovine serum, 2 mmol/L glutamine and 1% sodium pyruvate.
Cell viability was determined by measuring cellular ATP content using the CellTiter-Glo® Luminescent Cell Viability Assay (Promega #G7573) according to manufacturer's protocol. Briefly, 500-900 cells/well were plated on clear-bottom 384-well black plates (Greiner#781091) in quadruplicates or duplicates with 30 ul/well growth media, cells were allowed to attach overnight and followed by 72 hrs of incubation with various concentration of drugs or drug combinations (10 ul/well), at the end of the drug treatment, 30 ul/well of the CellTiter-Glo regent were added to each well to lyse the cells, and luminescence signals were recorded on a Envision plate reader. […]

| SMILES | IC50 (SW948; read-out: Cmpd. B IC50) [nM] | IC50 (HT-29; HT-29*, repeat experiment performed at end of study, single agent, read-out: Cmpd. B IC50) [nM] | IC50 (HT-29; HT-29, single agent, read-out: Cmpd. B IC50) [nM] | doses at which synergistic regions are typically observed [1] | IC50 (SW948; read-out: Cmpd. A IC50) [nM] | IC50 (HT-29; HT-29*, repeat experiment performed at end of study, single agent, read-out: Cmpd. A IC50) [nM] | IC50 (HT-29; HT-29, single agent, read-out: Cmpd. A IC50) [nM] |
| --- | --- | --- | --- | --- | --- | --- | --- |
| Cn1cnc2c(F)c(Nc3ccc(Br)cc3F)c(C(=O)NOCCO)cc21 [COMPOUND B, 6-(4-bromo-2-fluorophenylamino)-7-fluoro-3-methyl-3H-benzoimidazole-5-carboxylic acid (2-hydroxyethoxy)-amide] | 89.8 | 66.5 | 84 | ≥ 80 nM | – | – | – |
| Cc1nc(NC(=O)N2CCC[C@H]2C(N)=O)sc1-c1ccnc(C(C)(C)C(F)(F)F)c1 [COMPOUND A, (S)-pyrrolidine-1,2-dicarboxylic acid 2-amide 1-({4-methyl-5-[2-(2,2,2-trifluoro-1,1-dimethyl-ethyl)-pyridin-4-yl]-thiazol-2-yl}-amide)] | – | – | – | above 150 nM | 1190 | 4280 | 5200 |
